PMC6261997, “Synergistic enzymatic and bioorthogonal reactions for selective prodrug activation in living systems” (Nature Communications, 2018)

Assays:
[1] = system: CCC-HEH-2 cells; experiment: Clonogenic assay, CCC-HEH-2 cells; type: cell-based, human; conditions: pre-treated with 500 μM 2 for 6 h
Method: Supplementary Figure 17. Clonogenic assay of different cell lines before and after treatment with 2. HeLa cells, HUVECs and Saos-2 cells were seeded at density of 400 cells per well, CCC-HEH-2 cells were seeded at density of 200 cells per well. Cells were incubated with 500 µM 2 for 6 h in the treatment groups. Cells were not treated with compound 2 in the control groups. Colonies were harvest approximately 10 days after seeding. Scale bar, 10 mm.
Supplementary Figure 18. Cytotoxicity of activated Dox against HeLa cells and HUVECs. HeLa cells or HUVECs at the density of 3x10^3 cells per well were incubated with 100 µL of pre-warmed medium containing compound 2 at 300 or 500 µM for 6 h. After washing with PBS, 100 µL of 0.0001-10 µM TCO-Dox was added. After 72 h, cell proliferation was assessed by the MTT assay (n= 6). Error bars indicate standard […]
Supplementary Figure 19. […] At each time point, the remaining 2, corresponding generated 3 and remaining TCO-Dox were determined by UPLC-MS/MS. […]
Clonogenic assay of cells in vitro: Clonogenic assay was performed according to the standard protocol.6 2×10^5 attached cells were treated with 500 µM of 2 for 6 h in culture dishes. Cells were then detached, re-suspended in cultural medium and counted accurately. […]
The glutaraldehyde crystal violet mixture was removed carefully. […] The number of the colonies was counted using a stereomicroscope. […]

[2] = system: HUVECs; experiment: Intracellular Tz accumulation by fluorescence liberation from TCO-CMR, HUVECs; type: cell-based; conditions: even in the presence of 500 μM 2
Method: Next, we tested the intracellular accumulation of Tz via EISA in an attempt to differentiate cancer cells from normal cells. First, we investigated the accumulation of Tz in HeLa cells and HUVECs over time via fluorescence liberation from TCO-CMR (Fig. 3a). Each group of cells was pre-incubated with different concentrations of 2 ranging from 100 to 500 μM for 1, 2, 4, 6, 15 or 24 h. The cells were then washed with PBS thoroughly before the addition of an excessive amount of TCO-CMR (100 μL, 50 μM), and the reaction of TCO-CMR with the intracellular accumulated Tz was allowed to proceed for up to 24 h (Supplementary Fig. 8). In this experimental setting, the total liberated fluorescence was proportional to the amount of 3 accumulated inside the cells. […] Therefore, the optimized concentration of 2 (e.g. 500 μM) and incubation time (e.g. 6 h) were selected to differentiate between cancer and normal cells according to liberated fluorescence intensity (Fig. 3c). […]
All cells were purchased from the National Infrastructure of Cell Line Resource (Beijing, China). […] After incubation for different durations (1–24 h), the cells were rinsed with PBS, and then 100 μL of 50 μM TCO-CMR (dissolved in PBS) was added for real-time detection of the fluorescence intensity of coumarin in a plate reader (Perkin Elmer).

Q: Which results are given for `Cc1nnc(-c2ccc(CC(=O)NCCCCC(NC(=O)Cc3ccc4ccccc4c3)C(=O)NC(Cc3ccc(OP(=O)(O)O)cc3)C(=O)NC(Cc3ccccc3)C(=O)O)cc2)nn1` (centres unmarked) [compound 2, NapK(Tz)YpF]?
A: Surviving Fraction, CCC-HEH-2 [1]: 92.2 ±8.3%; liberated fluorescence in HUVECs [2]: only a negligible amount of fluorescence
